Test results: patent US20080125477A1, “7-(ACRYLOYL) INDOLE COMPOSITIONS AND METHODS OF MAKING AND USING SAME” (DECODE GENETICS, EHF., priority 2006, published 2008)
In brackets after ≈: the same amount, converted by molar mass.

Tests used:
[1] = biological target: T1, prostanoid hEP3 receptors (Homo sapiens, UniProt P43115); assay: binding on prostanoid hEP3 receptors
T1 sequence (P43115 1-390): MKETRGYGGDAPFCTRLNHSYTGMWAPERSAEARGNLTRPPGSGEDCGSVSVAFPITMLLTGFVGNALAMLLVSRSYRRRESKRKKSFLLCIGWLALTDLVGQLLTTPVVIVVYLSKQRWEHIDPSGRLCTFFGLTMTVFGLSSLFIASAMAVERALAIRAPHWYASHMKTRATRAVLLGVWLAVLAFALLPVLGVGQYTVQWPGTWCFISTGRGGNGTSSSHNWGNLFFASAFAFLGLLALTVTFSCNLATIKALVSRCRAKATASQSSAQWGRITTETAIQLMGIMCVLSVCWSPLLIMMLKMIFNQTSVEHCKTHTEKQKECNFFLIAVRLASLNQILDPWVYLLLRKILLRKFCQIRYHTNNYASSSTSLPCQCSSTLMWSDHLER
Experimental: DTSI and related compounds were assayed for binding on prostanoid hEP3 receptors according to the method of Abramovitz et al [Bioch. Biophys.

[2] = system: human platelets; assay: platelet aggregation in vitro, human platelets; type: cell-based; conditions: agonist Sulprostone (100 nM) and collagen (0.125 ug.mL), Serum % 100
Experimental: (§1) DTSI and related compounds were assayed for their effect on platelet aggregation in vitro. In experiments with human platelets, whole blood was extracted from overnight-fasted human donors. Each experiment was performed with blood from a single individual. In experiments with rodent platelets, whole blood was gathered from the heart of female mice or male rats under isofluran (Abbott) anaesthesia. Blood was pooled from two or ten individual rodents for each experiment in the case of rat and mouse experiments, respectively. In all cases, blood was collected into 3.8% sodium citrate tubes (Greiner Bio-one). Platelet-rich plasma (PRP) was obtained by centrifugation at 100×g for 15 min at 25° C. for humans, at 150×g for rats, or at 80×g for 10 min for mice. Platelet-poor plasma was obtained by centrifugation of the remaining blood at 2,400×g for 10 min at 25° C. After counting in an Autocounter (Model 920 EO, Swelab) platelets were diluted when necessary to the desired stock concentrations (200,000-300,000 platelets/μl) using 0.9% NaCl isotonic solution (Braun).
(§2) Platelet aggregation was determined by light absorbance using a platelet aggregometer with constant magnetic stirring (Model 490, Chronolog Cop., Havertown, Pa., USA), using a volume of 500 μl per cuvette. […] IC50 values were calculated using GraphPad Prism 3.02 for Windows (GraphPad Software, San Diego, Calif. USA). […]

[3] = system: rodent platelets (rat); assay: platelet aggregation in vitro, rat platelets; type: cell-based; conditions: agonist Sulprostone (100 nM) and collagen (2.0 ug.mL), Serum % 20
Experimental: as §1, §2

[4] = aqueous solubility of micronized DTSI in surfactant/amine solutions; type: physicochemical; conditions: for solubility at 60 min: thermodynamic from solid, micronized DTSI
Experimental: The solubility of DTSI in aqueous PEG, cyclodextrins, glycerides and other solvent systems was evaluated. Excess amount of the DTSI was added to the aqueous compatible/complexation media, the suspension formed was sonicated for 60 minutes (and also heated up to 75° C. e.g. for cyclodextrins). The suspensions at room temperature were filtered and the amount of dissolved drug was determined by HPLC.

[5] = system: pulmonary thromboembolism by arachidonic acid; assay: pulmonary thromboembolism assay (platelet aggregation in vivo); conditions: 100 mg/kg orally, 30 min before arachidonic acid 30 mg/kg i.v.; survival one hour after challenge
Experimental: DTSI was also assayed for its effects on platelet aggregation in vivo. […] For the pulmonary thromboembolism assay, conscious female C57BL/6 mice were dosed orally with the test compounds and 30 min later thromboembolism was induced by injection of arachidonic acid into a tail vein at a dose of 30 mg per kg body weight. Survival was evaluated one hour after the challenge with arachidonic acid, as mice that survive for that length of time usually recovered fully. The arachidonic acid injection was given via a lateral tail vein in a mouse that had been warmed briefly under a heat lamp (dilation of the tail veins using heat facilitates placing the injection). An insulin syringe, 0. 5 mL (from Becton Dickinson) was used for dosing. The dose volume given of both the test compound and the arachidonic acid was adjusted to the weight of the mouse (the dose volume p.o. for test compounds and i.v. for arachidonic acid solution was 10 μL and 5 μL per gram body weight, respectively).

In the case of `Cc1cn(Cc2ccc(Cl)cc2Cl)c2c(/C=C/C(=O)NS(=O)(=O)c3cc(Cl)c(Cl)s3)cc(F)cc12` [DTSI, 4,5-dichlorothiophene-2-sulfonic acid [(E)-3-[1-(2,4-dichlorophenylmethyl)-5-fluoro-3-methyl-1H-indol-7-yl]-acryloyl]amide], the “EP3 receptor antagonism (in words)” value [1] is reported as “potent, selective EP3 receptor antagonist”, the IC50 [2] is reported as 218 nM and the IC50 [3] is reported as 83 nM. For the same compound, the “aqueous solubility (in words)” value [4] was “poor”, the solubility at 60 min ([4]; aqueous solution of 5% Cremophor RH40, aqueous with cosolvent or surfactant or cyclodextrin, 5% Cremophor RH40) was 170 µg/mL (≈ 0.287 mM) and the solubility at 60 min ([4]; aqueous solution of 5% Cremophor RH40 and 1% diethanolamine, aqueous with cosolvent or surfactant or cyclodextrin, 5% Cremophor RH40 and 1% diethanolamine) was 22700 µg/mL (≈ 38.3 mM). The solubility at 60 min ([4]; aqueous solution of 5% Cremophor RH40 and 1% ethanolamine, aqueous with cosolvent or surfactant or cyclodextrin, 5% Cremophor RH40 and 1% ethanolamine) was 8900 µg/mL (≈ 15 mM), the solubility at 60 min ([4]; aqueous solution of 5% Cremophor RH40 and 1% triethanolamine, aqueous with cosolvent or surfactant or cyclodextrin, 5% Cremophor RH40 and 1% triethanolamine) was 8300 µg/mL (≈ 14 mM) and the solubility at 60 min ([4]; aqueous solution of 5% Cremophor RH40 and 1% tromethamine, aqueous with cosolvent or surfactant or cyclodextrin, 5% Cremophor RH40 and 1% tromethamine) was 8700 µg/mL (≈ 14.7 mM). For the same compound, the solubility at 60 min ([4]; aqueous solution of 5% Vitamin E TPGS and 1% choline, aqueous with cosolvent or surfactant or cyclodextrin, 5% Vitamin E TPGS and 1% choline) was 46600 µg/mL (≈ 78.7 mM), the solubility at 60 min ([4]; aqueous solution of 5% Vitamin E TPGS and 1% diethanolamine, aqueous with cosolvent or surfactant or cyclodextrin, 5% Vitamin E TPGS and 1% diethanolamine) was 20400 µg/mL (≈ 34.4 mM) and the solubility at 60 min ([4]; aqueous solution of 5% Vitamin E TPGS and 1% ethanolamine, aqueous with cosolvent or surfactant or cyclodextrin, 5% Vitamin E TPGS and 1% ethanolamine) was 19200 µg/mL (≈ 32.4 mM). It also gave a solubility at 60 min ([4]; aqueous solution of 5% Vitamin E TPGS and 1% triethanolamine, aqueous with cosolvent or surfactant or cyclodextrin, 5% Vitamin E TPGS and 1% triethanolamine) of 9200 µg/mL (≈ 15.5 mM), a solubility at 60 min ([4]; aqueous solution of 5% Vitamin E TPGS and 1% tromethamine, aqueous with cosolvent or surfactant or cyclodextrin, 5% Vitamin E TPGS and 1% tromethamine) of 8500 µg/mL (≈ 14.4 mM) and a solubility at 60 min ([4]; aqueous solution of 5% Vitamin E TPGS and 5% diethanolamine, aqueous with cosolvent or surfactant or cyclodextrin, 5% Vitamin E TPGS and 5% diethanolamine) of 58500 µg/mL (≈ 98.8 mM). The solubility at 60 min ([4]; aqueous solution of 5% Vitamin E TPGS, aqueous with cosolvent or surfactant or cyclodextrin, 5% Vitamin E TPGS) was 100 µg/mL (≈ 0.169 mM), the solubility at 60 min ([4]; aqueous with cosolvent or surfactant or cyclodextrin, 5% Vitamin E TPGS and 0.5% diethanolamine) was 15600 µg/mL (≈ 26.3 mM) and the Survival rate [5] was 68%.
